According to patent publication US20240246964A1 (Arbutus Biopharma Corporation, priority 2021, published 2024):

Molecular target: human PD-L1 (Homo sapiens (Human), UniProt Q9NZQ7)
Assay: T cell activation luciferase reporter cell culture system (T Cell Activation Assay)
Type: cell-based
Conditions: luciferase reporter assay; PD-L1 aAPC/CHO-K1 cells with PD-1 effector Jurkat T cells

Chain of human PD-L1 (Q9NZQ7 19-290): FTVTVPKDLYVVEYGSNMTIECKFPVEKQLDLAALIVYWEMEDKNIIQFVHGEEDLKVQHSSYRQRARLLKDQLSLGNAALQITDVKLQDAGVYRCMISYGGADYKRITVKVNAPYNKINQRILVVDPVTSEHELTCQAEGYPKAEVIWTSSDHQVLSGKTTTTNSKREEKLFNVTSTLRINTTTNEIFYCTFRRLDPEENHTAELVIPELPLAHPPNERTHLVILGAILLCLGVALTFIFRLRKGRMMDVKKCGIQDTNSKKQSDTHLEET

SMILES	EC50
COc1cc(-c2nccc(-c3cccc(-c4ccc(CNC5CCN(C(=O)C(C)C)CC5)c(OC)n4)c3Cl)c2Cl)ccc1CNC1CCN(C(=O)C(C)C)CC1 [Example 346, 1-(4-(((6-(2-Chloro-3-(3-chloro-2-(4-(((1-isobutyrylpiperidin-4-yl)amino)methyl)-3-methoxyphenyl)pyridin-4-yl)phenyl)-2-methoxypyridin-3-yl)methyl)amino)piperidin-1-yl)-2-methylpropan-1-one]	70.5 nM
COc1nc(-c2cccc(-c3ccnc(-c4cc(OC)c5nc(CN6CC(C(=O)O)C6)cn5c4)c3Cl)c2Cl)ccc1CNC[C@@H]1CCC(=O)N1 [Example 350, (S)-1-((6-(3-Chloro-4-(2-chloro-3-(6-methoxy-5-((((5-oxopyrrolidin-2-yl)methyl)amino)methyl)pyridin-2-yl)phenyl)pyridin-2-yl)-8-methoxyimidazo[1,2-a]pyridin-2-yl)methyl)azetidine-3-carboxylic acid]	89.2 nM
COc1cc(-c2nccc(-c3cccc(-c4ccc(CNC5CCN(C(=O)C6CCC6)CC5)c(OC)n4)c3Cl)c2Cl)ccc1CNC1CCN(C(=O)C2CCC2)CC1 [Example 352, (4-(((6-(2-Chloro-3-(3-chloro-2-(4-(((1-(cyclobutanecarbonyl)piperidin-4-yl)amino)methyl)-3-methoxyphenyl)pyridin-4-yl)phenyl)-2-methoxypyridin-3-yl)methyl)amino)piperidin-1-yl)(cyclobutyl)methanone]	134 nM
COc1cc(-c2nccc(-c3cccc(-c4ccc(CN5CCC(NC(C)=O)CC5)c(OC)n4)c3Cl)c2Cl)ccc1CNC[C@@H]1CCC(=O)N1 [Example 357, (S)—N-(1-((6-(2-Chloro-3-(3-chloro-2-(3-methoxy-4-((((5-oxopyrrolidin-2-yl)methyl)amino)methyl)phenyl)pyridin-4-yl)phenyl)-2-methoxypyridin-3-yl)methyl)piperidin-4-yl)acetamide]	9.1 nM
COc1cc(-c2nccc(-c3cccc(-c4ccc(CNC5CCN(C(C)=O)CC5)c(OC)n4)c3Cl)c2Cl)ccc1CN[C@H]1CC[C@H](O)CC1 [Example 360, 1-(4-(((6-(2-Chloro-3-(3-chloro-2-(4-((((1r,4r)-4-hydroxycyclohexyl)amino)methyl)-3-methoxyphenyl)pyridin-4-yl)phenyl)-2-methoxypyridin-3-yl)methyl)amino)piperidin-1-yl)ethan-1-one]	31 nM
COc1cc(-c2nccc(-c3cccc(-c4ccc(CNC5CCN(C(C)=O)CC5)c(OC)n4)c3Cl)c2Cl)ccc1CN1CC2(CC(O)C2)C1 [Example 361, 1-(4-(((6-(2-Chloro-3-(3-chloro-2-(4-((6-hydroxy-2-azaspiro[3.3]heptan-2-yl)methyl)-3-methoxyphenyl)pyridin-4-yl)phenyl)-2-methoxypyridin-3-yl)methyl)amino)piperidin-1-yl)ethan-1-one]	40.5 nM
COc1cc(-c2nccc(-c3cccc(-c4ccc(CN[C@H]5CC[C@H](O)CC5)c(OC)n4)c3Cl)c2Cl)ccc1CN[C@H]1CC[C@H](O)CC1 [Example 364, (1r,4r)-4-(((6-(2-Chloro-3-(3-chloro-2-(4-((((1r,4r)-4-hydroxycyclohexyl)amino)methyl)-3-methoxyphenyl)pyridin-4-yl)phenyl)-2-methoxypyridin-3-yl)methyl)amino)cyclohexan-1-ol]	28.5 nM

Further compounds by falling EC50, results first:

EC50	SMILES
400 nM	COc1cc(-c2nccc(-c3cccc(-c4ccc(CNC5CCN(C(C)=O)CC5)c(OC)n4)c3C)c2C)ccc1CNC1CCN(C(C)=O)CC1 [Example 363, 1-(4-(((6-(3-(2-(4-(((1-Acetylpiperidin-4-yl)amino)methyl)-3-methoxyphenyl)-3-methylpyridin-4-yl)-2-methylphenyl)-2-methoxypyridin-3-yl)methyl)amino)piperidin-1-yl)ethan-1-one]
261 nM	CNCc1ccc(-c2nccc(-c3cccc(-c4ccc(CNC)c(OC)n4)c3C)c2C)cc1OC [Example 362, 1-(2-Methoxy-4-(4-(3-(6-methoxy-5-((methylamino)methyl)pyridin-2-yl)-2-methylphenyl)-3-methylpyridin-2-yl)phenyl)-N-methylmethanamine]
146 nM	COc1nc(-c2cccc(-c3ccnc(-c4cc(OC)c5nc(CNCCC6(C(=O)O)CC6)cn5c4)c3Cl)c2Cl)ccc1CNC[C@@H]1CCC(=O)N1 [Example 351, (S)-1-(2-(((6-(3-Chloro-4-(2-chloro-3-(6-methoxy-5-((((5-oxopyrrolidin-2-yl)methyl)amino)methyl)pyridin-2-yl)phenyl)pyridin-2-yl)-8-methoxyimidazo[1,2-a]pyridin-2-yl)methyl)amino)ethyl)cyclopropane-1-carboxylic acid]
69.6 nM	COc1cc(-c2nccc(-c3cccc(-c4ccc(CNC5CCN(C(=O)C(C)C)CC5)c(OC)n4)c3Cl)c2Cl)cc(F)c1CNC1CCN(C(=O)C(C)C)CC1 [Example 347, 1-(4-(((6-(2-Chloro-3-(3-chloro-2-(3-fluoro-4-(((1-isobutyrylpiperidin-4-yl)amino)methyl)-5-methoxyphenyl)pyridin-4-yl)phenyl)-2-methoxypyridin-3-yl)methyl)amino)piperidin-1-yl)-2-methylpropan-1-one]
40.4 nM	COc1cc(-c2nccc(-c3cccc(-c4ccc(CNC5CC(=O)NC(=O)C5)c(OC)n4)c3Cl)c2Cl)ccc1CNC1CC(=O)NC(=O)C1 [Example 359, 4-(((6-(2-Chloro-3-(3-chloro-2-(4-(((2,6-dioxopiperidin-4-yl)amino)methyl)-3-methoxyphenyl)pyridin-4-yl)phenyl)-2-methoxypyridin-3-yl)methyl)amino)piperidine-2,6-dione]
38.3 nM	COc1cc(-c2nccc(-c3cccc(-c4ccc(CNC5CCS(=O)(=O)CC5)c(OC)n4)c3Cl)c2Cl)cc(F)c1CNC1CCS(=O)(=O)CC1 [Example 349, 4-(((6-(2-Chloro-3-(3-chloro-2-(4-(((1,1-dioxidotetrahydro-2H-thiopyran-4-yl)amino)methyl)-3-fluoro-5-methoxyphenyl)pyridin-4-yl)phenyl)-2-methoxypyridin-3-yl)methyl)amino)tetrahydro-2H-thiopyran 1,1-dioxide]
28.9 nM	COc1cc(-c2nccc(-c3cccc(-c4ccc(CNC5CCOCC5)c(OC)n4)c3Cl)c2Cl)cc(F)c1CNC1CCOCC1 [Example 348, N-((6-(2-Chloro-3-(3-chloro-2-(3-fluoro-5-methoxy-4-(((tetrahydro-2H-pyran-4-yl)amino)methyl)phenyl)pyridin-4-yl)phenyl)-2-methoxypyridin-3-yl)methyl)tetrahydro-2H-pyran-4-amine]
26.3 nM	COc1cc(-c2nccc(-c3cccc(-c4ccc(CNC[C@H]5CCC(=O)N5)c(OC)n4)c3Cl)c2Cl)ccc1CNC[C@H]1CCC(=O)N1 [Example 354, (R)-5-((((6-(2-Chloro-3-(3-chloro-2-(3-methoxy-4-(((((R)-5-oxopyrrolidin-2-yl)methyl)amino)methyl)phenyl)pyridin-4-yl)phenyl)-2-methoxypyridin-3-yl)methyl)amino)methyl)pyrrolidin-2-one]
25.5 nM	COc1cc(-c2nccc(-c3cccc(-c4ccc(CN5CCC(NC(C)=O)CC5)c(OC)n4)c3Cl)c2Cl)ccc1CNC[C@H]1CCC(=O)N1 [Example 356, (R)—N-(1-((6-(2-Chloro-3-(3-chloro-2-(3-methoxy-4-((((5-oxopyrrolidin-2-yl)methyl)amino)methyl)phenyl)pyridin-4-yl)phenyl)-2-methoxypyridin-3-yl)methyl)piperidin-4-yl)acetamide]
